The values that follow come from US20180008718A1, “COMPOSITIONS FOR THE SUSTAINED RELEASE OF ANTI-GLAUCOMA AGENTS TO CONTROL INTRAOCULAR PRESSURE” (The Johns Hopkins University, priority 2015, published 2018).

Molecules are shown by their SMILES.

Data set [1] deals with human patients with elevated IOP. As to conditions: intracameral administration; cited from earlier work.
Data set [2] relates to normal, C57BL/6 mice. Put plainly: IOP lowering effect in normal mice after administration via the epischleral vein at the limbus. Format: in vivo. From the text: FIG. 2A is a graph showing intraocular pressure (IOP, mmHg) as function of administration of free ECA and a control over time (days). FIG. 2B is a graph showing intraocular pressure (IOP, mmHg) as function of administration of ECA-L-cysteine particles and a control over time (days).

Data set [3] can be described thus: In vitro drug release kinetics of ECA-L-Cysteine polyanhydride microparticles. It is filed as physicochemical. As to conditions: accelerated infinite sink conditions at 37° C.; FIG. 1. From the text: FIG. 1 is a graph showing the release of ECA-L-cysteine (% release) as a function of time (days).

For `C=C(CC)C(=O)c1ccc(OCC(=O)O)c(Cl)c1Cl` [free ECA, ethacrynic acid], in data set [1], the “duration of IOP lowering” value is “three”. In data set [2] (1 μg drug via epischleral vein at the limbus), the “duration of the IOP lowering effect” value is on record as 1 days. Also, the “IOP lowering compared to the untreated control group” value in data set [2] (1 μg drug via epischleral vein at the limbus, FIGS. 2A and 2B) is “significant lowering of IOP”. Besides, in data set [2] (1 μg free drug, Day 5), the “IOP lowering effect by Day 5” value is “gone”.

With `CCC(CSC[C@H](N)C(=O)O)C(=O)c1ccc(OCC(=O)O)c(Cl)c1Cl` (stereo partly drawn) [ECA-L-Cysteine conjugate], the “time over which ECA-L-Cysteine conjugate was continually released in vitro” value in data set [3] is recorded as 14 days.
